In patent US8039668B2, “Naphthalene-based inhibitors of anti-apoptotic proteins” (Burnham Institute for Medical Research, priority 2008, dated 2011):
Where two headings read alike, the source gives them in different places.

Legend:
PC3ML cells = experiment: Cell viability, ATP-LITE assay; assay type: cell-based, human; conditions: Homo sapiens, PC3-ML
Procedure, shortened: (§1)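 Human cancer lines were seeded at 2000 (H460, H1299), 3000 (PC3) or 10,000 (RS11846) cells/well in F12 or RPMI1640 with 5% FBS. Compounds were added in 0.1% DMSO 24 h after seeding. Viability was read by ATP-LITE luminescence after 72 h and normalized to DMSO controls.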

H1299 cell line = experiment: Cell viability, ATP-LITE assay; assay type: cell-based, human; conditions: Homo sapiens
Procedure, shortened: as §1

BCL-XL [1] = target: T1, BCL-XL (Homo sapiens, UniProt Q07817); experiment: Competitive fluorescence polarization assay (FPA), Bak BH3 peptide; assay type: binding; parameters: 100 nM GST-BCL-XL ΔTM protein
Procedure: For competitive binding assays, 100 nM GST-BCL-XL ΔTM protein was preincubated with the tested compound at varying concentrations in 47.5 μL PBS (pH=7.4) in 96-well black plates at room temperature for 10 min, then 2.5 μL of 100 nM FITC-labeled Bak BH3 peptide was added to produce a final volume of 50 μL. The wild-type and mutant Bak BH3 peptides were included in each assay plate as positive and negative controls, respectively. […] IC50 was determined by fitting the experimental data to a sigmoidal dose-response nonlinear regression model (SigmaPlot 10.0.1, Systat Software, Inc., San Jose, Calif., USA). Data reported are mean of three independent experiments±standard error (SE). […] Fluorescence polarization was measured after 10 min.
Target sequence in this assay (Q07817 1-209 limits assumed): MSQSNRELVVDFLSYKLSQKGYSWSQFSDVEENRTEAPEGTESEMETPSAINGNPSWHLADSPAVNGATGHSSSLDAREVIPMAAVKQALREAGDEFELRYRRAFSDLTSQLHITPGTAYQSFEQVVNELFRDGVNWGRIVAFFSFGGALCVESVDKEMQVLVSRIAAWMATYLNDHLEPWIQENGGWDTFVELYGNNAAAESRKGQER

[2] = test system: H460 human lung cell line; experiment: Cell viability, ATP-LITE assay; assay type: cell-based; conditions: Homo sapiens
Procedure, shortened: as §1

RS11846 cell line = experiment: Cell viability, ATP-LITE assay; assay type: cell-based; conditions: Homo sapiens, Table 9; read-out: RS11846 EC50 (ATP-LITE assay)
Procedure, shortened: as §1

[3] = test system: human lymphoma RS11846 cell line; experiment: Apoptosis, Annexin V-FITC and propidium iodide assay; assay type: cell-based; conditions: Homo sapiens
Procedure: The apoptotic activity of the compounds against RS11846 cells was assessed by staining with Annexin V- and propidium iodide (PI). Lymphoma cell line, RS11846, was cultured in RPMI 1640 medium (Mediatech Inc., Herndon, Va. 20171) containing 10% fetal bovine serum (Mediatech Inc., Herndon, Va. 20171) and Penicillin/Streptomycin (Mediatech Inc., Herndon, Va. 20171). […] The percentage of viable cells was determined by FITC-Annexin V- and propidium iodide (PI)-labeling, using an Apoptosis Detection kit (BioVision Inc.), and analyzing stained cells by flow cytometry (FACSort; Bectin-Dickinson, Inc.; Mountain View, Calif.). Cells that were annexin-V-negative and PI-negative were considered viable.

BCL-XL [4] = target: T1, BCL-XL; experiment: 1D 1H-NMR binding assay; parameters: key to 1D-^1H NMR: +++, Very Active; ++, Active; +, Mild; −, Weak; conditions: for 1D ^1H-NMR Binding Assay (BCL-XL): Table 9; for 1D-^1H NMR: BCL-XL 25 μM, compound 200 μM
Procedure: By observing the aliphatic region of the spectra, binding could be readily detected due to chemical shift changes in active site methyl groups of Ile, Leu, Thr, Val or Ala (region between −0.8 and 0.3 ppm). All experiments were performed with a 600 MHz spectrometer Bruker Avance 600 equipped with four rf channels and z-axis pulse-field gradients.
Target sequence in this assay (Q07817 whole entry): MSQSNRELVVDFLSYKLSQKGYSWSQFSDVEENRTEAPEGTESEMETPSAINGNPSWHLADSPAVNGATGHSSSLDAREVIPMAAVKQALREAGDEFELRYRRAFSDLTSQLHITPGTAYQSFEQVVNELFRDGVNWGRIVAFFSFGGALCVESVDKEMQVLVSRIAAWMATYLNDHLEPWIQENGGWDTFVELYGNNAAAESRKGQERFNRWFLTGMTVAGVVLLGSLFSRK

[5] = PAMPA cell membrane permeability; assay type: in vitro ADME; conditions: Table 11; Low/Medium, not defined
Source text: PAMPA is parallel artificial membrane permeation assay.

[6] = test system: Bax/Bak double knockout mouse embryonic fibroblast cells (MEF/DKO); experiment: FITC-Annexin V/PI cytotoxicity in Bax/Bak double knockout cells; assay type: cell-based; conditions: 10 μM
Procedure: MEF/WT and MEF/DKO cells were seeded in 24-well plate at a seeding density of half a million per well (in 1 ml of DMEM medium supplemented by 10% FCS). […] On the following day, floating cells were pooled with adherent cells harvested after brief incubation with 0.25% Trypsin/EDTA solution (Gibco/In-Vitrogen Inc.). Cells were centrifuged and supernatant was discarded, and cell pellet was re-suspended with 0.2 ml of Annexin-V binding buffer, followed by addition of 1 μl Annexin-FITC and 1 μl PI (propidium iodide). The percentage of viable cells was determined by a 3-color FACSort instrument and data analyzed by Flow-Jo program, scoring Annexin V-negative, PI-negative as viable cells.

Mcl-1 = Mcl-1 (Homo sapiens, UniProt Q07820); experiment: Competitive fluorescence polarization assay (FPA), Bim BH3 peptide; assay type: binding
Chain of Mcl-1 (Q07820 whole entry): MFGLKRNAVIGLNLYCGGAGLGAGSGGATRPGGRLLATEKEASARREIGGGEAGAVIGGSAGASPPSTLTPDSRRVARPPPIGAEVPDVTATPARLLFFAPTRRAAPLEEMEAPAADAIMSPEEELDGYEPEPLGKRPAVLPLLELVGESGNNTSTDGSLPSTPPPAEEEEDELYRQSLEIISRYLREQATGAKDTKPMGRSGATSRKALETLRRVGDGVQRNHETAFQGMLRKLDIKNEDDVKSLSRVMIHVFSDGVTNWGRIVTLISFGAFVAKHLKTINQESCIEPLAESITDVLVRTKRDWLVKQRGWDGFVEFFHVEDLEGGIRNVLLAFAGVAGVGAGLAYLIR

Bfl-1 = target: T2, Bfl-1 (Homo sapiens, UniProt Q16548); experiment: Competitive fluorescence polarization assay (FPA); assay type: binding
T2 sequence (Q16548 1-175): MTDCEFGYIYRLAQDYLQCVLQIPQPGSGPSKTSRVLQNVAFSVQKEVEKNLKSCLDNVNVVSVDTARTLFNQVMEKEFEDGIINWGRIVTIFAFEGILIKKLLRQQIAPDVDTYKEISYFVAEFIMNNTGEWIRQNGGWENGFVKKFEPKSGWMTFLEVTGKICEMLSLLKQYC

[7] = Liver microsomal stability; assay type: in vitro ADME, rat; conditions: for Microsomal Stability (T = 1 h): Table 6, rat liver microsomes
Source text: Liver Microsomal Stability.

B6Bcl-2 transgenic mice = conditions: for Tox: Bcl-2 transgenic mouse, single ip injection 72 μmol/kg; for percentage of maximum reduction in spleen weight (maximal biological activity) / spleen weight reduction: single ip 72 μmol/kg; for percentage of maximum reduction in spleen weight (maximal biological activity): maximum shrinkage no more than 50%; for spleen weight reduction: single mouse
Procedure: Transgenic mice expressing BCL-2 have been described as the B6 line. The BCL-2 transgene res a minigene version of a t(14;18) translocation in which the human BCL-2 gene is fused with the immunoglobulin heavy-chain (IgH) locus and associated IgH enhancer. The transgene was propagated on the Balb/c background.
After 24 hours, B6BCL2 mice were sacrificed by intraperitoneal injection of lethal dose of Avertin. Spleen was removed and weighed. […] Spleen tissue was fixed in z-FIX for 3 days and rinsed in PBS, and saved for histological analysis of spleen (H&E staining and TUNEL assay).

[8] = test system: BP3 human B-cell lymphoma cell line; experiment: Annexin V-FITC and propidium iodide assay; assay type: cell-based; conditions: Homo sapiens, B-cell, read-out: EC50 BP3
Plasma stability = assay type: in vitro ADME, rat; conditions: for Plasma stability (T = 1 h): Table 6, rat plasma
Procedure: Plasma Stability. A 20 μL aliquot of a 10 mM solution in DMSO of the test compound was added to 2.0 mL of heparinized rat plasma (Lampire, P1-150N) to obtain a 100 μM final solution. The mixture was incubated for 1 h at 37.5° C. Aliquots of 100 μL were taken (0, 30 min, 1 h) and diluted with 200 μL of MeOH containing internal standard.

Bcl-2 = Bcl-2 (Homo sapiens, UniProt P10415); experiment: Competitive fluorescence polarization assay (FPA), Bim BH3 peptide; assay type: binding
Chain of Bcl-2 (P10415 whole entry): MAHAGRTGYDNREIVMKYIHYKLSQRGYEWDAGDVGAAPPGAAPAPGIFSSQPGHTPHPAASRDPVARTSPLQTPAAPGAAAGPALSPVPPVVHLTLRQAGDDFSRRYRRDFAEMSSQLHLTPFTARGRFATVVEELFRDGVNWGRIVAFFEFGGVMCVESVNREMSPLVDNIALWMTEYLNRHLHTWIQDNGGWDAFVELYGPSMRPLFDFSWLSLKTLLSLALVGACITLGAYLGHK

BCL-XL [9] = target: T1, BCL-XL; experiment: Isothermal titration calorimetry (ITC); assay type: binding
Procedure: Titrations were performed using a VP-ITC or ITC200 calorimeter from Microcal (Northampton, Mass.). BCL-XL was used at concentrations between 25 and 100 μM in 20 mM sodium phosphate buffer (pH 7.4) and 5-10% DMSO. Titrants were used at concentrations 10-15 fold of that of the protein in the same buffer. Titrations were carried out at 25° C. Data were analyzed using Microcal Origin software provided by the ITC manufacturer (Microcal, Northampton, Mass.).
Target sequence in this assay (Q07817 whole entry): as the sequence (Q07817 whole entry) above

[10] = Table 3, ATP-LITE assay, heading: EC50 PC3ML, read-out: EC50 PC3ML
[11] = NCI-H1299, heading: EC50 H1299, Table 3, ATP-LITE assay, read-out: EC50 H1299
[12] = NCI-H460, Table 3, ATP-LITE assay, read-out: EC50 H460
[13] = Table 3, Annexin V-FITC and propidium iodide assay, heading: EC50 RS11846, read-out: EC50 RS11846
[14] = Table 3, Annexin V-FITC and propidium iodide assay

SMILES | 1D ^1H-NMR Binding Assay (BCL-XL) (BCL-XL [4]) | Cell Permeability [5] | MEF/DKO cells killed [6] | EC50 (PC3ML cells; [10]) | EC50 (H1299 cell line; [11]) | IC50 (Mcl-1) | IC50 (BCL-XL [1]; read-out: IC50 FPA Bcl-XL) | IC50 (Bfl-1) | Microsomal Stability (T = 1 h) [7] | EC50 [2, 12] | Tox (B6Bcl-2 transgenic mice) | percentage of maximum reduction in spleen weight (maximal biological activity) (B6Bcl-2 transgenic mice) | spleen weight reduction (B6Bcl-2 transgenic mice) | EC50 [3, 13] | 1D-^1H NMR (BCL-XL [4]; Table 3) | Plasma stability (T = 1 h) (Plasma stability) | IC50 (Bcl-2) | Kd (BCL-XL [9]) | EC50 [8, 14] | further results
Cc1cc2c(C(=O)c3cccc4ccccc34)c(O)c(O)cc2c(O)c1-c1c(C)cc2c(C(=O)c3cccc4ccccc34)c(O)c(O)cc2c1O [Compound VIII, (1,1′,6,6′,7,7′-hexahydroxy-3,3′-dimethyl-2,2′-binaphthyl-5,5′-diyl)bis(naphthalen-1-ylmethanone)] | + | Low | – | – | – | – | – | – | – | – | – | – | – | – | – | – | – | – | – | EC50 (PC3ML cells; Table 9, read-out: PC3ML EC50): 3 µM; EC50 (H1299 cell line; NCI-H1299, Table 9, read-out: H1299 EC50): 2.4 µM; IC50 (BCL-XL [1]; Table 9, read-out: FPA IC50 (BCL-XL)): 0.16 µM; EC50 ([2]; NCI-H460, Table 9, read-out: H460 EC50): 0.59 µM; EC50 (RS11846 cell line): 1.8 µM; EC50 ([3]; Table 9, read-out: RS11846 EC50 (Annexin V- and propidium iodide assay)): 3 to 5.5 µM
Cc1cc2c(C(=O)NC(C)c3ccc(Cl)cc3)c(O)c(O)cc2c(O)c1-c1c(C)cc2c(C(=O)NC(C)c3ccc(Cl)cc3)c(O)c(O)cc2c1O (stereo not drawn) [Compound 8k, N^5,N^5′-bis(1-(4-chlorophenyl)ethyl)-1,1′,6,6′,7,7′-hexahydroxy-3,3′-dimethyl-2,2′-binaphthyl-5,5′-dicarboxamide] | – | – | 20-35% | 5 µM | 3.2 µM | 0.23 µM | 0.27 µM | 0.4 µM | 71% | 0.5 µM | 4+ | 85-95% | more than 40% | 5.5 µM | +++ | 94% | 0.49 µM | 0.11 µM | – | EC50 ([8]; heading: EC50 BP3, Table 3, Annexin V-FITC and propidium iodide assay): 1.5 µM
Cc1cc2c(C(=O)NCC3CCCCC3)c(O)c(O)cc2c(O)c1-c1c(C)cc2c(C(=O)NCC3CCCCC3)c(O)c(O)cc2c1O [Compound 8m, N^5,N^5′-bis(cyclohexylmethyl)-1,1′,6,6′,7,7′-hexahydroxy-3,3′-dimethyl-2,2′-binaphthyl-5,5′-dicarboxamide] | – | – | 20-35% | 3.7 µM | 4.8 µM | 0.78 µM | 1.1 µM | 2 µM | 90% | 0.41 µM | 4+ | – | – | 4.9 µM | +++ | 89% | 0.71 µM | 0.85 µM | 0.9 µM | degraded after 1 hour incubation in rat microsomal preparations ([7]; 1 hour): 10%; degraded after 1 hour incubation in rat plasma (Plasma stability; 1 hour): 11%
Cc1cc2c(C(=O)C(C)(C)C)c(O)c(O)cc2c(O)c1-c1c(C)cc2c(C(=O)C(C)(C)C)c(O)c(O)cc2c1O [Compound XVIII, 1,1′-(1,1′,6,6′,7,7′-hexahydroxy-3,3′-dimethyl-2,2′-binaphthyl-5,5′-diyl)bis(2,2-dimethylpropan-1-one)] | ++ | Medium | – | – | – | – | – | – | – | – | – | – | – | – | – | – | – | – | – | EC50 ([3]; read-out: RS11846 EC50 (Annexin V- and propidium iodide assay), Table 9): 14.7 µM
Cc1cc2c(CCc3ccccc3)c(O)c(O)cc2c(O)c1-c1c(C)cc2c(CCc3ccccc3)c(O)c(O)cc2c1O [Compound 12e, 3,3′-dimethyl-5,5′-diphenethyl-2,2′-binaphthyl-1,1′,6,6′,7,7′-hexaol] | – | – | 20-35% | – | – | 0.83 µM | 3.5 µM | 5 µM | 89% | – | 0 | – | – | – | – | 80% | 0.48 µM | 0.41 µM | – | EC50 (PC3ML cells; read-out: EC50 PC3ML, ATP-LITE assay): 2.4 µM; EC50 (H1299 cell line; NCI-H1299, read-out: EC50 H1299): 0.58 µM; EC50 ([2]; NCI-H460, read-out: EC50 H460): 0.92 µM; signs of toxicity (B6Bcl-2 transgenic mice; 72 μmol/kg and even 120 μmol/kg): no significant signs of toxicity; EC50 ([3]; read-out: EC50 RS11846, Annexin V-FITC and propidium iodide assay): 9.8 µM; EC50 [8]: 4.14 µM; 1D-^1H NMR (BCL-XL [4]; Table 4): +
Cc1cc2c(C(=O)NCCc3cccc(Cl)c3)c(O)c(O)cc2c(O)c1-c1c(C)cc2c(C(=O)NCCc3cccc(Cl)c3)c(O)c(O)cc2c1O [Compound 8p, N^5,N^5′-bis(3-chlorophenethyl)-1,1′,6,6′,7,7′-hexahydroxy-3,3′-dimethyl-2,2′-binaphthyl-5,5′-dicarboxamide] | – | – | 20-35% | 3.2 µM | 7.8 µM | 3.2 µM | 6.3 µM | – | 90% | 0.99 µM | 4+ | 85-95% | more than 40% | 4.6 µM | +++ | – | 4.4 µM | – | 0.41 µM | –
